Assay in all cases: growth of human tumour cells (NCI), 48 h
Assay [1] concerns CCRF-CEM leukemia.
Assay [2] concerns EKVX NSCLC.
The test system of assay [3] is OVCAR-5 ovarian.
Assay [4] relates to SF-539 CNS.
For assay [5], the system named is SK-OV-3 ovarian.
Assay [6] deals with TK-10 renal.
In assay [7] the test system is UACC-257 melanoma.
Assay [8] has as its system A498 renal.
For assay [9], the system named is MDA-MB-231 breast.

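Each compound was tested at five concentrations against cells in 96-well plates for 48 hours. TGI denotes the concentration required for complete inhibition of growth.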

In the case of `COc1cc(Nc2cnc3cc(C(F)(F)F)ccc3n2)cc(OC)c1OC`, the TGI in assay [1], in assay [2], in assay [3], in assay [4], in [5] and in assay [6] was above 100 µM each time. Also, in assay [7], the TGI is above 100 µM.
As for `CCCc1c2c([nH]c(=O)c1C)C(=O)c1[nH]c(=O)c(C)c(CCC)c1C2=O`, the TGI in assay [8] was above 100 µM; in assay [1], 73.2 µM; in [3], above 100 µM; in [4], above 100 µM; in [6], above 100 µM; in [7], 6.99 µM.
Take `CCCCCCCCCCCCCS(=O)(=O)O`: the TGI in assay [8], in assay [1], in assay [2], in assay [3], in assay [4] and in assay [6] was above 100 µM in each case. This compound returned a TGI in [7] above 100 µM.
Regarding `O=C(O)c1ccc(NC(=O)C2C(=O)C(=O)N(c3ccc(C(=O)O)cc3)C2=O)cc1` (configuration not stated), the TGI in assay [8], in assay [1], in assay [2], in assay [3], in assay [4] and in assay [5] was above 100 µM throughout. Moreover, the TGI in assay [6] and in [7] was above 100 µM in each case.
With `CCN(CC)CCCN(c1cc(OC)cc2nccnc12)S(=O)(=O)c1ccc(C)cc1`, the TGI in assay [8], in [1], in assay [2], in [3], in assay [4] and in assay [5] was above 100 µM throughout. Further, the TGI in assay [6] and in [7] was above 100 µM each time.
Regarding `O=C1C2C(C(=O)N1O)N(Cc1ccccc1)C(=O)N2Cc1ccccc1` (configuration not stated), the TGI in [8], in assay [1], in [2], in assay [3], in [4] and in assay [5] was above 100 µM throughout. Further, the TGI in assay [6] and in [7] was above 100 µM in each case.
Take `CC[C@@H]1C[C@@H]2CN3CCc4c([nH]c5ccc(OC)cc45)C(COC(=O)c4ccc(OC)c(OC)c4)(C2)C13`: the TGI was 61.4 µM in [8]; 95.7 µM in assay [1]; above 100 µM in assay [2]; above 100 µM in [3]; 55 µM in assay [4]; 97.2 µM in assay [6]. In assay [7], the TGI turned out to be 37.8 µM.
For `C/C(=N\NC(=S)N1CCCCCC1)c1nccnc1C`, the TGI is 12.9 µM in assay [8]; above 100 µM in [3]; 1.65 µM in assay [4]; above 100 µM in assay [6]; 1.77 µM in assay [7].
On to `COc1nc2c(OC)cccc2c(OC)c1C=O`, for which the TGI in assay [1], in [2], in [4], in assay [5], in assay [6] and in assay [7] was above 100 µM throughout.
For the compound `O=C(Nc1ccc(Cl)c(C(F)(F)F)c1)C(=O)C(C(=O)/C=C/c1ccccc1)C1OC(=O)c2ccccc21` (configuration not stated), the TGI in [8], in [1], in assay [2], in assay [3], in [5] and in assay [6] was above 100 µM in each case. This compound registered a TGI in assay [7] above 100 µM.
For `CC(C)C(C(=O)O)N(CC1(O)OCC(O)C(O)C1O)N=O` (configuration not stated), the TGI in assay [8], in [1], in assay [2], in assay [3], in assay [4] and in assay [5] was above 100 µM in each case. Moreover, the TGI in assay [6] and in [7] was above 100 µM each time.
Take `COc1cccc(N2C(=O)c3c(c4[nH]c5ccccc5c4c4ccc(C(C)(C)C)cc34)C2=O)c1`: the TGI in assay [8], in assay [1], in [2], in assay [3], in [4] and in assay [5] was above 100 µM each time. Moreover, the TGI in assay [6] and in assay [7] was above 100 µM in each case.
On to `CN/N=C(/Cc1occc(=O)c1O)C(=O)Nc1ccc(C)c(C)c1`, for which the TGI in [8], in [1], in [2], in assay [3], in [4] and in assay [5] was above 100 µM each time. Moreover, the TGI in assay [6] and in assay [7] was above 100 µM throughout.
Consider `Cc1ccc(S(=O)(=O)N/N=C(\CCN2CCCC2)CC(c2ccccc2)c2c(O)c3ccccc3oc2=O)cc1` (configuration not stated), for which the TGI in assay [8], in assay [1], in assay [2], in assay [3], in assay [4] and in assay [5] was above 100 µM throughout. Also, the TGI in assay [6] and in [7] was above 100 µM each time.
For the compound `C/C(=N\N=C(N)N)C(CN(CC(C)C)CC(C)C)C(=O)Nc1ccc(C)cc1C` (configuration not stated), the TGI in [8], in assay [1], in assay [2], in assay [3], in assay [4] and in assay [5] was above 100 µM each time. For the same compound, the TGI in assay [6] and in [7] was above 100 µM in each case.
As to `CN(N=O)C(=O)Nc1c[nH]c(=O)[nH]c1=O`, the TGI in assay [8], in assay [1], in [2], in assay [9], in [3] and in [4] was above 100 µM each time. In addition, the TGI in [5], in [6] and in assay [7] was above 100 µM in each case.
Take `CC(C)(C)NNC(=O)/C(=C/c1ccc(Oc2ccc(Cl)c(Cl)c2)cc1)NC(=O)c1ccccc1`: the TGI in assay [8], in assay [1], in assay [2], in [3], in [4] and in assay [5] was above 100 µM in each case. Moreover, the TGI in [6] and in assay [7] was above 100 µM throughout.
Take `CC(=O)N(C)OC(=O)CC(=O)c1ccccc1`: the TGI in assay [1], in assay [3], in assay [4], in [5], in assay [6] and in assay [7] was above 100 µM throughout.
